Data on six molecules can be found in ChEMBL document CHEMBL1130820, “Search for alpha 1-adrenoceptor subtypes selective antagonists: design, synthesis and biological activity of cystazosin, an alpha 1D-adrenoceptor antagonist” (Bioorg Med Chem Lett, 1998).

Broadly, the Ki is the dissociation constant of the complex between target and ligand, obtained from inhibition or displacement.

Test [1] deals with T1, Alpha-1A adrenergic receptor (Rattus norvegicus, UniProt P43140).
T1 sequence (P43140 whole entry): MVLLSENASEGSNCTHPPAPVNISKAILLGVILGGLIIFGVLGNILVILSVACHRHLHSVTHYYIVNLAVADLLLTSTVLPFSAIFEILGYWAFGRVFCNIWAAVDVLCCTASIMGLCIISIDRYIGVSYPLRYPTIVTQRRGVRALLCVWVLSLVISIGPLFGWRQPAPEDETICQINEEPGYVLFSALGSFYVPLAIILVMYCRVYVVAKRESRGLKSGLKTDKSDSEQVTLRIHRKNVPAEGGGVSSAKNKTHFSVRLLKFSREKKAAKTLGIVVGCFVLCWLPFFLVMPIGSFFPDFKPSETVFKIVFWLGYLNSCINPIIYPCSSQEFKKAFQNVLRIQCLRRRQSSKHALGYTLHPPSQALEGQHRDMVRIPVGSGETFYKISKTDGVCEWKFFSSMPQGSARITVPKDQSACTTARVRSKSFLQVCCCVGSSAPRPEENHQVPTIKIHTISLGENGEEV
The test can be described thus: Antagonistic affinity against Alpha-1A adrenergic receptor was determined in isolated prostatic vas deferens tissue from rat. In kind it is functional, tissue-based. The conditions noted are these: read-out: pA2 (converted).

In test [2] the target is T2, Alpha-1D adrenergic receptor (Rattus norvegicus, UniProt P23944).
T2 sequence (P23944 whole entry): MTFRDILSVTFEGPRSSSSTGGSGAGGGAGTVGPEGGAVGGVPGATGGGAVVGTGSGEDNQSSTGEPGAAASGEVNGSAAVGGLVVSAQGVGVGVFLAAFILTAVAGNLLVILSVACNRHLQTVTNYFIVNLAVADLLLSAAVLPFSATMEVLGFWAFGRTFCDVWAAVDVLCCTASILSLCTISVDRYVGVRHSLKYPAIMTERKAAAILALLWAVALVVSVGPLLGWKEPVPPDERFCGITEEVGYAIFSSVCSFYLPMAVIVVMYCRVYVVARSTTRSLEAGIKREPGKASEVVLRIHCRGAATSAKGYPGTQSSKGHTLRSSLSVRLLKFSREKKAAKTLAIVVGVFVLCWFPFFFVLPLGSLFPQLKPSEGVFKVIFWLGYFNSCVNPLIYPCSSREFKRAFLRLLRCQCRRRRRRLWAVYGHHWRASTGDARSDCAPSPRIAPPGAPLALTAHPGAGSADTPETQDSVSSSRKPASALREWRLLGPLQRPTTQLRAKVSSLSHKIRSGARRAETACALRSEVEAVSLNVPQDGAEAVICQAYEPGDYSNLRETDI
The test can be described thus: Antagonistic affinity against Alpha-1D adrenergic receptor was determined in isolated thoracic aorta from rat. The conditions noted are these: read-out: pA2 (converted). In kind it is functional, tissue-based.

For test [3], the target named is T3, Alpha-1B adrenergic receptor (Rattus norvegicus, UniProt P15823).
T3 sequence (P15823 whole entry): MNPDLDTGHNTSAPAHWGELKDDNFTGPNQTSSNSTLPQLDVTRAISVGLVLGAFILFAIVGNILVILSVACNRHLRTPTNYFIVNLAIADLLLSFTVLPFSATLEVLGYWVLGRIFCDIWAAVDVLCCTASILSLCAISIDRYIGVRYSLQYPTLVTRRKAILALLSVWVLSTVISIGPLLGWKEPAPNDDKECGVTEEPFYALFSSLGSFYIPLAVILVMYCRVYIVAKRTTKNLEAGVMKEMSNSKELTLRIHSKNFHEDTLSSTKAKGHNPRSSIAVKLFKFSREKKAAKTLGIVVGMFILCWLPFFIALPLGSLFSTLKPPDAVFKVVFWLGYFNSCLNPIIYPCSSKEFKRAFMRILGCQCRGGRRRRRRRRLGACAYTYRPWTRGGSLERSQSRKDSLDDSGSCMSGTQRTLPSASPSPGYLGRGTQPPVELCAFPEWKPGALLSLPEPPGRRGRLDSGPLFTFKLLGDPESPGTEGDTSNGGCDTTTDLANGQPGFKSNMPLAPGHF
Briefly: Antagonistic affinity against Alpha-1B adrenergic receptor was determined in isolated spleen tissue from rat. It counts as functional, tissue-based. The conditions noted are these: read-out: pA2 (converted).

The target of the next test is D(2) dopamine receptor (Rattus norvegicus, UniProt P61169). Briefly: Antagonistic affinity against rat striatum Dopamine receptor D2. In kind it is functional, tissue-based.
Test [4] has as its target T4, Adrenergic receptor alpha-2 (Rattus norvegicus, UniProt P22086+P19328+P22909).
T4 sequence (P22086 whole entry): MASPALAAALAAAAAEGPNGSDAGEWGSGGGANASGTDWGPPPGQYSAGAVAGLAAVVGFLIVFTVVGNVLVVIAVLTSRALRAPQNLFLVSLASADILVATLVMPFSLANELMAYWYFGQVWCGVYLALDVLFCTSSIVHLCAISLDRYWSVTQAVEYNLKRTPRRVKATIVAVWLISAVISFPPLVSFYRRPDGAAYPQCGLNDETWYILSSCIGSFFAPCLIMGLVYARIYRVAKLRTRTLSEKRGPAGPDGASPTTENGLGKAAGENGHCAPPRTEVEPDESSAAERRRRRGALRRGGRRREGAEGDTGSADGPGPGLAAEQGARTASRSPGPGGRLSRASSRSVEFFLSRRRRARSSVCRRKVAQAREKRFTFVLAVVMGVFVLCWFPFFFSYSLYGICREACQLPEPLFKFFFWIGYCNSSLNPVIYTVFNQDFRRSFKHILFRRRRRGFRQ
T4 sequence (P19328 whole entry): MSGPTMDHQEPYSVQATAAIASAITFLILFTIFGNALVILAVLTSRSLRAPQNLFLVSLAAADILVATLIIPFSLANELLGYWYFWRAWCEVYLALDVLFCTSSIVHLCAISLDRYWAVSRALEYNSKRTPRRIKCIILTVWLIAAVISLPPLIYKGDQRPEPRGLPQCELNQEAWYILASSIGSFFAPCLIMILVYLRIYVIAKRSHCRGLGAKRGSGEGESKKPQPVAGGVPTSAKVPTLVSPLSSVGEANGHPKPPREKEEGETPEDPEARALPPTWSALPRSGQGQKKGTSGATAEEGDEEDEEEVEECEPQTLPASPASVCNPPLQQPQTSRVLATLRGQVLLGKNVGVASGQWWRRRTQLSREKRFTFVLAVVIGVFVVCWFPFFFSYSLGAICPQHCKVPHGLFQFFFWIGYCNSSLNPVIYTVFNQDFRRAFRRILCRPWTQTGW
T4 sequence (P22909 whole entry): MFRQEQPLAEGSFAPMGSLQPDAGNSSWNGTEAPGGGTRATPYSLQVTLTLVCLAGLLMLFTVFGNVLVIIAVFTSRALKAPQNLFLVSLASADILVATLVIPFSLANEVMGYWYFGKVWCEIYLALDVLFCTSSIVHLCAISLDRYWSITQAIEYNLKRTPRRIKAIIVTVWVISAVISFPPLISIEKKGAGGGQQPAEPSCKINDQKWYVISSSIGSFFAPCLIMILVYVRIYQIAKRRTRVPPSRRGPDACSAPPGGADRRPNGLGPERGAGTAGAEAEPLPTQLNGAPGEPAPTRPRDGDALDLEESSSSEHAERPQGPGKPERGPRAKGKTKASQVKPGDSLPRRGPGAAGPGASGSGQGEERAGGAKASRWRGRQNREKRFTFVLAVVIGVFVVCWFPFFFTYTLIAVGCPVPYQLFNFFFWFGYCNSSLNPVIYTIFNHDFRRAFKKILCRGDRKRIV
Briefly: Antagonistic affinity against native rat cortex Alpha-2 adrenergic receptor. It counts as functional, tissue-based.

For test [5], the target named is T5, 5-hydroxytryptamine receptor 1A (Homo sapiens, UniProt P08908).
T5 sequence (P08908 whole entry): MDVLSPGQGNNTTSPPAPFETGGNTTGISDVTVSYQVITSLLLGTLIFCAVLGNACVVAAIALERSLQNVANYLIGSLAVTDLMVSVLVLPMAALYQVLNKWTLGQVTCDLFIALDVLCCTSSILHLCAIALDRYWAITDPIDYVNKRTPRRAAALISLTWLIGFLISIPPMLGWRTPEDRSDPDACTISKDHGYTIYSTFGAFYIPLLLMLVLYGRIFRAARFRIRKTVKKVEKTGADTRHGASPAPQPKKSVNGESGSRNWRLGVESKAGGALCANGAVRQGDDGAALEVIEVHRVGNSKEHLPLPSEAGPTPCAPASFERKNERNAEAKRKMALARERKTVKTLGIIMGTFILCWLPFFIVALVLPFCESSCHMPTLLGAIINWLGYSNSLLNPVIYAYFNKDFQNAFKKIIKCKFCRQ
The test can be described thus: Antagonistic affinity against cloned human 5-hydroxytryptamine 1A receptor. It counts as functional.

Sequence of D(2) dopamine receptor (P61169 whole entry): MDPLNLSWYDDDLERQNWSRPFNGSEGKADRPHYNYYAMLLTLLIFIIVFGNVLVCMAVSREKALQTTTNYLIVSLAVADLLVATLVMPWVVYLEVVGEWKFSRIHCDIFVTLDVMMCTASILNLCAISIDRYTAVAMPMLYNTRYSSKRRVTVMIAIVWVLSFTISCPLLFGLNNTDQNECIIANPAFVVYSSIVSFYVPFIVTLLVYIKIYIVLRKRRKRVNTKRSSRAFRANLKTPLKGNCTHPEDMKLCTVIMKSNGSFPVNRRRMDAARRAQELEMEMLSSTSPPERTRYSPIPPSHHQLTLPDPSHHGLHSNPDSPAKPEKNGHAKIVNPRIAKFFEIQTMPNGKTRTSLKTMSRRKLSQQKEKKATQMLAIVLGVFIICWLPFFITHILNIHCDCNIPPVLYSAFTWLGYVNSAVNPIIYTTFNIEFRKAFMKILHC

For the molecule `COc1cc2nc(NCCSSCCNC(=O)c3ccco3)nc(N)c2cc1OC`, the figures for the Kb in test [1], in test [2] and in test [3] were 1780 nM, 45.7 nM and 115 nM, respectively.
For `COc1ccccc1N1CCN(CCN2C(=O)CC3(CCCC3)CC2=O)CC1.Cl.Cl`, the inhibition constant (Ki) was 47.9 nM at D(2) dopamine receptor and 1.74 nM in test [5]. In addition, in test [4], the “Log Ki” value is listed as -5.98. The Kb in test [3] is 28.2 nM.
On to `COc1cc2nc(N3CCN(C(=O)c4ccco4)CC3)nc(N)c2cc1OC` [PRAZOSIN], for which the Ki on D(2) dopamine receptor is > 10000 nM.
For the molecule `COc1cc2nc(N3CCN(C(=O)c4ccco4)[C@H]4CCCC[C@H]43)nc(N)c2cc1OC` [CYCLAZOSIN], in test [1], the Kb is 33.1 nM. Besides, the values for the inhibition constant Ki (on D(2) dopamine receptor; in test [5]) were 8320 nM and > 1000 nM, respectively. Also, the “Log Ki” value in test [4] was -6.13.
Turning to `COc1cc2nc(N(C)CCCCCCN(C)C(=O)c3ccco3)nc(N)c2cc1OC`, the Kb in test [1] is 0.912 nM; in test [2], 0.646 nM; in test [3], 0.145 nM. Also, the inhibitory constant (Ki) was 2340 nM at D(2) dopamine receptor and > 1000 nM in test [5]. The “Log Ki” value in test [4] is given as -7.
`COc1cc2nc(N(C)CCSSCCN(C)C(=O)c3ccco3)nc(N)c2cc1OC`: the Kb in test [1] was 29.5 nM; in test [2], 2.88 nM; in test [3], 32.4 nM. Further, the “Log Ki” value in test [4] is reported as -6.23. For the same molecule, in test [5], the Ki was > 1000 nM.
